Drawing on PubChem BioAssay AID720589 (Broad Institute, 2013), this text covers AC35 for 59 compounds.

Several values for one entry are separate records, joined by “and”; a condition that tells them apart may be missing. Equal values may be shown once.

The subject of the experiment is HepG2 viability, ATP luminescence (CellTiter-Glo), 72 h. As to the kind of experiment: ATP-based viability loss in HepG2 cells – cell-based, CellTiter-Glo luminescence, cherry-pick, set 3, cytotoxicity control, dose response (AID 720589). On the technique in general: In ATP-based viability assays light output follows the ATP content of the culture.
In the case of `COc1ccc(/C=C/C(=O)c2cc(F)ccc2OC(=O)c2ccccc2OC)cc1OC`, the AC35 is 13.9 µM. Turning to `Cc1cccc(/C=C(\c2nc3ccccc3[nH]2)S(=O)(=O)c2ccccc2)c1`, the AC35 is 10.7 µM.

Consider `CC1OC(OC2CC(O)C3(CO)C4C(O)CC5(C)C(C6=CC(=O)OC6)CCC5(O)C4CCC3(O)C2)C(O)C(O)C1O` (centres undefined), for which the AC35 is 0.129 µM.

On to `COC1C(O)C(C)OC(OC2C(Oc3cccc4c(O)c5c(=O)oc6ccc(C)c7c(=O)oc(c34)c5c67)OC(C)C(O)C2O)C1O` (centres undefined), for which the AC35 was 14.3 µM.

As to `CO[C@H]1CN(C)C(=O)c2ccc(NC(=O)c3ccc(-c4ccccc4)cc3)cc2OC[C@H](C)NC[C@H]1C`, the AC35 was 6.36 µM. For the compound `O=C(O)c1ccc(N/N=C/c2ccc3c(c2)OCO3)cc1`, the AC35 is 5.97 µM. With `Nc1nc(N)c2cc(Sc3ccc4ccccc4c3)ccc2n1`, the AC35 was 3.74 µM. To `N#C[C@H]1[C@H](c2ccc(C#Cc3ccccc3F)cc2)[C@@H](CO)N1C(=O)C1CCCCC1` belongs 12.9 µM. On to `C[C@H]1CN([C@@H](C)CO)C(=O)c2cc(NS(=O)(=O)c3ccc(Cl)cc3)ccc2O[C@H]1CN(C)Cc1ccc(C(=O)Nc2ccccc2N)cc1`, for which the AC35 was 7.39 µM. On to `CCN1/C(=C/C(C)=C/c2sc3ccccc3[n+]2CC)Sc2ccccc21`, for which the AC35 is 0.838 µM. Regarding `Cc1c(CC(=O)NCCCC(=O)O)c(=O)oc2cc3c(cc12)CCC(C)(C)O3`, the AC35 is 16.3 µM. Regarding `CC[C@@H]1C[C@H]2CC[C@H](O2)[C@H](C)C(=O)O[C@@H](C)C[C@@H]2CC[C@@H](O2)[C@@H](C)C(=O)O[C@H](C)C[C@H]2CC[C@H](O2)[C@H](C)C(=O)O[C@@H](C)C[C@@H]2CC[C@@H](O2)[C@@H](C)C(=O)O1`, the AC35 is 0.506 µM. Regarding `O=C(CCc1ccccc1)NC(c1cccs1)c1cc(Cl)c2cccnc2c1O` (centres undefined), the AC35 is 7.07 µM. Regarding `N=c1ccn2c(n1)O[C@H]1[C@H](O)[C@@H](CO)O[C@H]12`, the AC35 was 1.37 µM. For `c1ccc(Nc2nnc(-c3ccc4c(c3)OCO4)o2)cc1`, the AC35 was 14.3 µM. In the case of `CC1(C)N=C(N)N=C(N)N1c1ccc(CCCCc2ccccc2)cc1`, the AC35 is 2.08 µM.

For `CCOc1cc2[nH]c(=S)n(Cc3ccc(C(=O)NCCN(CC)CC)cc3)c(=O)c2cc1OCC`, the AC35 is 15.8 µM. With `BrC(=C\c1ccccc1)/C=N/n1cnnc1`, the AC35 was 16.6 µM. Turning to `Oc1c(C(c2ccc(Cl)cc2)N2CCCC2)cc(Cl)c2cccnc12` (centres undefined), the AC35 was 17.3 µM. For the compound `C[C@@H]1CN([C@H](C)CO)C(=O)c2cc(NC(=O)c3ccccc3)ccc2O[C@@H](C)CCCCO[C@H]1CN(C)C(=O)Nc1cccc2ccccc12`, the AC35 is 1.54 µM. With `OCC1OC(n2ccc3c2ncn2ncnc32)C(O)C1O` (centres undefined), the AC35 was 0.339 µM.

On to `O=C1c2ccccc2C(=O)c2cc(N3CCCCC3)ccc21`, for which the AC35 is 12.5 µM. In the case of `COC(=O)C[C@@H]1CC[C@@H]2[C@@H](COc3ccc(NC(=O)Nc4ccc(C#N)cc4)cc3C(=O)N2C)O1`, the AC35 was 14.4 µM.

In the case of `C=C1C(=O)[C@@]23[C@H](O)C[C@@H]4C(C)(C)CC[C@H](O)[C@@]4(C)[C@@H]2CC[C@@H]1[C@H]3O`, the AC35 was 15.3 µM. Regarding `CN(C)c1ncnc2c1ccn2C1OC(CO)C(O)C1O` (centres undefined), the AC35 is 0.178 µM.

In the case of `O=C1NC(=O)N(Cc2ccc(F)cc2)C(=O)/C1=C\C=C\c1ccco1`, the AC35 is 9.05 µM.

On to `Nc1ccn([C@@H]2O[C@H](CO)[C@@H](O)C2O)c(=O)n1` (some centres undefined), for which the AC35 was 0.477 µM. As to `COc1cc(C(=O)N2CCC(N3CCN(C)CC3)CC2)ccc1Nc1ncc2c(n1)N(C)c1ccccc1C(=O)N2C`, the AC35 is 11.4 µM. For the compound `COc1ccc(C(CCNCc2ccc(OC(C)C)cc2)C(C)C)cc1` (centres undefined), the AC35 is 9.44 µM. Regarding `C=C1C(=O)O[C@@H]2[C@H]1[C@@H](OC(=O)/C(C)=C/C)C/C(C)=C\C(=O)/C=C(\C)[C@@H]2O`, the AC35 was 12.5 µM. With `CCc1ccc(/C=C2\SC(=S)N(CCCC(=O)N3CCN(C)CC3)C2=O)cc1`, the AC35 was 8.6 µM.

Regarding `Cc1ccc(/C=C2\SC(=S)N(CCCC(=O)NNC(=O)c3ccccc3O)C2=O)cc1`, the AC35 is 16.9 µM. With `C[C@@H]1CN([C@@H](C)CO)C(=O)c2cccc(NC(=O)CCCCCC(=O)Nc3ccccc3N)c2O[C@@H]1CN(C)Cc1ccc(Oc2ccccc2)cc1`, the AC35 was 0.458 µM. As for `C=C1C(=O)C=C[C@]2(C)C[C@@H]3OC(=O)[C@](C)(O)[C@H]3C[C@@H]12`, the AC35 is 11.8 µM. Regarding `C[C@@H]1CCCCO[C@H](CN(C)Cc2ccc(C(=O)Nc3ccccc3N)cc2)[C@@H](C)CN([C@H](C)CO)C(=O)c2cc(NS(=O)(=O)c3ccc(F)cc3)ccc2O1`, the AC35 was 10.4 µM. To `CCCCCCCCNC(C)C(O)c1ccc(SC(C)C)cc1` (centres undefined) belongs 12.9 µM.

As for `C[C@@H]1CN([C@@H](C)CO)C(=O)c2cc(NC(=O)Nc3ccccc3)ccc2O[C@@H]1CN(C)Cc1ccc(C(=O)Nc2ccccc2N)cc1`, the AC35 was 2.69 µM.

Consider `CN(C)c1ccc(N=Nc2nc3ccccc3n2C)cc1`, for which the AC35 is 12 µM. Take `CC(C)=CCC/C(C)=C/CN1C(=O)N(c2ccc(F)cc2)[C@H]2C[C@@H](c3ccccc3)[C@@H](C)[C@@H](C(=O)N3CCOCC3)C[C@H]21`: the AC35 is 3.74 µM. Turning to `Nc1nc(N)c(-c2cccc(C(F)(F)F)c2)c(Cc2cccc(C(F)(F)F)c2)n1`, the AC35 is 4.53 µM. With `O=C(Nc1cccc(S(=O)(=O)N2CCCC2)c1)c1ccc(Cl)nc1`, the AC35 was 16 µM. As to `C[C@]12CC[C@H](O)C[C@H]1CC[C@@H]1[C@@H]2CC[C@]2(C)[C@@H](C3=CC(=O)OC3)CC[C@]12O`, the AC35 was 2.6 µM.

With `CNC[C@H](CC1CCCCC1)NC[C@H](CO)NCCc1cccc(C(F)(F)F)c1`, the AC35 is 7.57 µM. `Nc1ccc(-c2cc3ccccc3c(=O)o2)cc1`: the AC35 was 0.05 µM.

`CC(=O)OC1CC(OC2C(O)CC(OC3C(O)CC(OC4CCC5(C)C(CCC6C5CCC5(C)C(C7=CC(=O)OC7)CCC65O)C4)OC3C)OC2C)OC(C)C1OC1OC(CO)C(O)C(O)C1O` (centres undefined): the AC35 was 0.0996 µM. As to `C[C@]12CC[C@H]3[C@@H](CC[C@]4(O)C[C@@H](O)CC[C@]34C=O)[C@@]1(O)CC[C@@H]2C1=CC(=O)OC1`, the AC35 is 0.93 µM. Consider `Cn1ccc2cc(-c3ccc4ncnc(NCc5cccs5)c4c3)ccc21`, for which the AC35 was 16.6 µM. Turning to `CCCN1C/C(=C/c2ccc3c(c2)OCO3)C(=O)/C(=C/c2ccc3c(c2)OCO3)C1`, the AC35 was 12.5 µM. With `COC(=O)C[C@@H]1CC[C@H]2[C@H](COc3ccc(NC(=O)Nc4ccc(C#N)cc4)cc3C(=O)N2C)O1`, the AC35 is 4.2 µM. As for `C[C@H](O)C#Cc1ccc2c(c1)O[C@@H](CN(C)Cc1ccc(-c3ccccc3)cc1)[C@H](C)CN([C@@H](C)CO)S2(=O)=O`, the AC35 was 3.54 µM and 6.95 µM.

For the compound `COc1ccc(NC(=O)N2CCCCN3[C@@H](CO)[C@H](c4ccc(C5=CCCCC5)cc4)[C@@H]3C2)cc1`, the AC35 is 10.9 µM. As for `Cc1nc(N)nc(N)c1-c1ccc(Cl)c(Cl)c1`, the AC35 is 0.557 µM.

In the case of `CN(C)c1ccc(C=c2c3ccccc3n3c2c2c([n+]3C)CCCC2)cc1`, the AC35 is 2.14 µM. As for `COC1C(O)C(C)OC(OC2CCC3(C)C(CCC4C3C(O)CC3(C)C(C5=CC(=O)OC5)CCC43O)C2)C1O` (centres undefined), the AC35 is 0.204 µM. With `Nc1ccc(Cn2ccc3c4c(N)nc(N)nc4ccc32)cc1`, the AC35 was 0.137 µM. With `Cc1ccc(S(=O)(=O)Nc2ccc3c(c2)C(=O)N([C@@H](C)CO)C[C@@H](C)[C@H](CN(C)Cc2ccc(C(F)(F)F)cc2)OCCCC[C@H](C)O3)cc1`, the AC35 was 13.3 µM. As to `CCc1ccc(/C=C2\SC(=S)N(CCCC(=O)NCCCN3CCOCC3)C2=O)cc1`, the AC35 is 10.8 µM. For the compound `C=C(C(=O)c1ccccc1)C(C)C(=C)C(=O)c1ccccc1`, the AC35 is 10.2 µM. Take `C[C@@H]1CCCCO[C@H](CN(C)Cc2ccc(C(=O)Nc3ccccc3N)cc2)[C@@H](C)CN([C@H](C)CO)C(=O)c2cc(NS(=O)(=O)c3ccc(Cl)cc3)ccc2O1`: the AC35 was 9.81 µM.
